Results reported in publication PMC4939875 (Nature, 2016).

Columns and labels:
[1] = tested on: TONSL acidic stretch and ARD (a.a. 450-692); assay: ITC of TONSL acidic stretch and ARD; format: binding, human; details: TONSL a.a. 450-692, H3K9me1 (a.a. 1-21), 20 mM Tris pH 7.5, 0.5 M NaCl
TONSL ARD = assay: GST-histone tail pull-down with recombinant TONSL ARD; format: binding, human; details: GST-H3 tail (1–59), GST-H4 tail (1–31); 20 mM Tris pH 7.5, 0.5 M NaCl; SDS-PAGE

| Substance | interaction between TONSL ARD with acidic stretch and H3K9me1 peptide [1] | binding of TONSL ARD to GST-histone tail (TONSL ARD) |
| --- | --- | --- |
| H3K9me1: peptide of H3(1-21)K9me1 (mono-methylation on Lys9) | unable to detect an interaction | – |
| GST-H4 tail: GST-tagged human histone H4 fragment 1–31 | – | binds |
